Data: PubChem BioAssay AID2060507 (Molecular Pharmacology Branch, DTP, NCI, 2025)

Test system: 519858-162-T-J1-PDC complex spheroid viability
Assay: Anticancer human tumor 519858-162-T-J1-PDC patient-derived colon adenocarcinoma cell line growth inhibition [GQUAD]
Settings: for IC50: curve of first compound; for viability, T/C: stronger effect = lower value
Source text: DNA G-quadruplex Stabilizer Agents in Combinations in Complex Spheroids
A high-throughput screen of multi-cell type tumor spheroids was designed to identify active combinations of DNA G-quadruplex stabilizer agents and targeted small molecules. Complex spheroids include a stromal component modeled by human endothelial cells (HUVEC) and fibroblasts modeled by human mesenchymal stem cells (MSCs). The concentration ranges selected for each drug and investigational agent were based upon clinically achievable concentrations if the clinical Cmax of the agent was known.
Compounds. The drugs and investigational agents: pidnarulex (CX-5461; NSC782164), APTO-253 (NSC789042), BRACO-19 (NSC847499), peposertib (NSC802822), ceralasertib (NSC780249), elimusertib (NSC800525), camonsertib (NSC841442), AZD-1390 (NSC803789), olaparib (NSC753686), talazoparib (NSC767125), ART-558 (NSC835418), sotorasib (NSC818433), MRTX-1133 (NSC836407), SN-38 (NSC673596), topotecan (NSC609699), etoposide (NSC141540), doxorubicin (NSC123127), gemcitabine (NSC613327), 5-fluorouracil (NSC19893), paclitaxel (NSC125973), vemurafenib (NSC761431), panobinostat (NSC761190), R-306465 (JNJ-16241199; NSC773264), adavosertib (NSC754352), TP-3654 (NSC805149), carboplatin (NSC241240), KSQ-4279 (NSC840948), and staurosporine (NSC755774) were obtained from the National Cancer Institute (NCI) Developmental Therapeutics Program Chemical Repository (34). The FDA-approved anticancer drug set is available from the NCI Developmental Therapeutics Program. […] The stock solutions were prepared in dimethyl sulfoxide (DMSO, Sigma-Aldrich, St. Louis, MO, cat. D2650) at 800-fold the tested concentration and stored at -70 degrees C prior to their use. All drugs and investigational agents were tested over a range starting from a high concentration at or near the clinical Cmax and decreasing in half-log increments. If the clinical Cmax for an agent had not been determined, the highest concentration tested was 10 microM.
2.3 Cell Culture. All cells were maintained in an incubator at 37 degrees C and 5% CO2 with 95% humidity. The PDC lines were cultured according to standard operating procedures established by the NCI PDMR. All PDCs were thawed and cultured in Matrigel-coated flasks prepared with a working solution of 1X Ham's F-12 nutrient mix, without supplementation (Invitrogen, cat. 11765054), 100 U/mL penicillin-streptomycin (Invitrogen, cat. 15140122), and 2.5% Matrigel (Corning Inc., cat. 354248) for the first three passages. The 857933-349-R-J2-PDC line was cultured in 6C/Colon 1B media, which includes advanced DMEM/F-12 (Thermo Fisher Scientific, cat. 12634028), 10 mM HEPES (Thermo Fisher Scientific, cat. 15630080), 1X GlutaMAX supplement (Thermo Fisher Scientific, cat. 35050061), 0.1 mg/mL primocin (InvivoGen, cat. ant-pm-2), 10% defined fetal bovine serum, heat inactivated (HyClone Laboratories Inc., cat. SH30070.03HI), 50% L-WRN conditioned media (ATCC, cat. CRL-3276), 1.25 mM N-Acetyl-L-cysteine (Sigma-Aldrich, cat. A9165), 10 mM nicotinamide (Sigma-Aldrich, cat. N0636), 1X B-27 supplement (Thermo Fisher Scientific, cat. 17504044), 1X N-2 supplement (Thermo Fisher Scientific, cat. 17502048), 10 microM Y-27632 dihydrochloride (Tocris Bioscience, cat. 1254), and 50 ng/mL human EGF recombinant protein (Thermo Fisher Scientific, cat. PHG0311). The 485176-168-R4-J1-PDC line was cultured in Panc media, which includes all 6C/Colon 1B media components plus 100 ng/mL human FGF-10 (Thermo Fisher Scientific, cat. 100-26), 500 nM SB-431542 (Selleckchem, cat. S1067), and gastrin (Tocris, cat. 3006).
[…]

[1] = second compound 0.0316 µM, first compound 0.0316 µM
[2] = second compound 0.0316 µM, first compound 0.1 µM
[3] = second compound 0.0316 µM, first compound 0.316 µM
[4] = second compound 0.0316 µM, first compound 1 µM
[5] = second compound 0.0316 µM, first compound 3.16 µM
[6] = second compound 0.0316 µM, first compound 10 µM
[7] = second compound 0.1 µM, first compound 0.0316 µM
[8] = second compound 0.1 µM, first compound 0.1 µM
[9] = second compound 0.1 µM, first compound 0.316 µM
[10] = second compound 0.1 µM, first compound 1 µM
[11] = second compound 0.1 µM, first compound 3.16 µM
[12] = second compound 0.1 µM, first compound 10 µM
[13] = second compound 0.316 µM, first compound 0.0316 µM
[14] = second compound 0.316 µM, first compound 0.1 µM
[15] = second compound 0.316 µM, first compound 0.316 µM
[16] = second compound 0.316 µM, first compound 1 µM
[17] = second compound 0.316 µM, first compound 3.16 µM
[18] = second compound 0.316 µM, first compound 10 µM
[19] = second compound 1 µM, first compound 0.0316 µM
[20] = second compound 1 µM, first compound 0.1 µM
[21] = second compound 1 µM, first compound 0.316 µM
[22] = second compound 1 µM, first compound 1 µM
[23] = second compound 1 µM, first compound 3.16 µM
[24] = second compound 1 µM, first compound 10 µM
[25] = second compound 3.16 µM, first compound 0.0316 µM
[26] = second compound 3.16 µM, first compound 0.1 µM
[27] = second compound 3.16 µM, first compound 0.316 µM
[28] = second compound 3.16 µM, first compound 1 µM
[29] = second compound 3.16 µM, first compound 3.16 µM
[30] = second compound 3.16 µM, first compound 10 µM
[31] = second compound 10 µM, first compound 0.0316 µM
[32] = second compound 10 µM, first compound 0.1 µM
[33] = second compound 10 µM, first compound 0.316 µM
[34] = second compound 10 µM, first compound 1 µM
[35] = second compound 10 µM, first compound 3.16 µM
[36] = second compound 10 µM, first compound 10 µM
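Also: spheroids exposed to compounds for 7 days.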
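For viability, T/C in this document: 100% = DMSO vehicle control viability.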

CC(C)(O)C1CCC(Nc2ccc3ncc(-c4cccc(C(F)(F)F)c4)n3n2)CC1 (stereo unspecified) + Cc1cnc(CNC(=O)c2c(=O)c3ccc(N4CCCN(C)CC4)nc3n3c2sc2ccccc23)cn1
IC50 (second compound 0.0316 µM): 2150 nM
IC50 (second compound 0.1 µM): 1980 nM
IC50 (second compound 0.316 µM): 1450 nM
IC50 (second compound 1 µM): 262 nM
IC50 (second compound 3.16 µM): < 31.6 nM
IC50 (second compound 10 µM): 31.6 nM
viability, T/C [1]: 101%
viability, T/C [2]: 111%
viability, T/C [3]: 93.2%
viability, T/C [4]: 103%
viability, T/C [5]: 11%
viability, T/C [6]: 36.5%
viability, T/C [7]: 87.6%
viability, T/C [8]: 95.5%
viability, T/C [9]: 107%
viability, T/C [10]: 105%
viability, T/C [11]: 8.82%
viability, T/C [12]: 24.6%
viability, T/C [13]: 107%
viability, T/C [14]: 72.4%
viability, T/C [15]: 63.5%
viability, T/C [16]: 80.9%
viability, T/C [17]: 20.8%
viability, T/C [18]: 31.2%
viability, T/C [19]: 71.1%
viability, T/C [20]: 68.8%
viability, T/C [21]: 42.1%
viability, T/C [22]: 48.5%
viability, T/C [23]: 42.4%
viability, T/C [24]: 52.3%
viability, T/C [25]: 37.5%
viability, T/C [26]: 43.1%
viability, T/C [27]: 50.8%
viability, T/C [28]: 47.1%
viability, T/C [29]: 31.4%
viability, T/C [30]: 20.8%
viability, T/C [31]: 36.4%
viability, T/C [32]: 45.3%
viability, T/C [33]: 52.3%
viability, T/C [34]: 64.7%
viability, T/C [35]: 9.24%
viability, T/C [36]: 0.75%

CCc1c2c(nc3ccc(O)cc13)-c1cc3c(c(=O)n1C2)COC(=O)[C@]3(O)CC + Cc1cnc(CNC(=O)c2c(=O)c3ccc(N4CCCN(C)CC4)nc3n3c2sc2ccccc23)cn1
IC50 (second compound 0.0316 µM): > 316 nM
IC50 (second compound 0.1 µM): > 316 nM
IC50 (second compound 0.316 µM): > 316 nM
IC50 (second compound 1 µM): > 316 nM
IC50 (second compound 3.16 µM): < 0.999 nM
IC50 (second compound 10 µM): < 0.999 nM
viability, T/C (second compound 0.0316 µM, first compound 0.000999 µM): 121%
viability, T/C (second compound 0.0316 µM, first compound 0.00316 µM): 57.5%
viability, T/C (second compound 0.0316 µM, first compound 0.00999 µM): 81.9%
viability, T/C [1]: 67.6%
viability, T/C (second compound 0.0316 µM, first compound 0.0999 µM): 74.8%
viability, T/C [3]: 64.7%
viability, T/C (second compound 0.1 µM, first compound 0.000999 µM): 67.5%
viability, T/C (second compound 0.1 µM, first compound 0.00316 µM): 105%
viability, T/C (second compound 0.1 µM, first compound 0.00999 µM): 89.3%
viability, T/C [7]: 55.3%
viability, T/C (second compound 0.1 µM, first compound 0.0999 µM): 61.1%
viability, T/C [9]: 48.2%
viability, T/C (second compound 0.316 µM, first compound 0.000999 µM): 95.1%
viability, T/C (second compound 0.316 µM, first compound 0.00316 µM): 94.8%
viability, T/C (second compound 0.316 µM, first compound 0.00999 µM): 66.2%
viability, T/C [13]: 67.2%
viability, T/C (second compound 0.316 µM, first compound 0.0999 µM): 65%
viability, T/C [15]: 69.1%
viability, T/C (second compound 1 µM, first compound 0.000999 µM): 66.6%
viability, T/C (second compound 1 µM, first compound 0.00316 µM): 42.9%
viability, T/C (second compound 1 µM, first compound 0.00999 µM): 72.2%
viability, T/C [19]: 55%
viability, T/C (second compound 1 µM, first compound 0.0999 µM): 75%
viability, T/C [21]: 80.4%
viability, T/C (second compound 3.16 µM, first compound 0.000999 µM): 35.9%
viability, T/C (second compound 3.16 µM, first compound 0.00316 µM): 48.5%
viability, T/C (second compound 3.16 µM, first compound 0.00999 µM): 47.8%
viability, T/C [25]: 47.6%
viability, T/C (second compound 3.16 µM, first compound 0.0999 µM): 52.8%
viability, T/C [27]: 55%
viability, T/C (second compound 10 µM, first compound 0.000999 µM): 42.9%
viability, T/C (second compound 10 µM, first compound 0.00316 µM): 38%
viability, T/C (second compound 10 µM, first compound 0.00999 µM): 62.9%
viability, T/C [31]: 47%
viability, T/C (second compound 10 µM, first compound 0.0999 µM): 50.3%
viability, T/C [33]: 52.1%

COc1cccc2c1C(=O)c1c(O)c3c(c(O)c1C2=O)CC(O)(C(=O)CO)CC3OC1CC(N)C(O)C(C)O1 (stereo unspecified) + Cc1cnc(CNC(=O)c2c(=O)c3ccc(N4CCCN(C)CC4)nc3n3c2sc2ccccc23)cn1
IC50 (second compound 0.0316 µM): > 10000 nM
IC50 (second compound 0.1 µM): > 10000 nM
IC50 (second compound 0.316 µM): > 10000 nM
IC50 (second compound 1 µM): > 10000 nM
IC50 (second compound 3.16 µM): 577 nM
IC50 (second compound 10 µM): < 31.6 nM
viability, T/C [1]: 105%
viability, T/C [2]: 85.3%
viability, T/C [3]: 63.1%
viability, T/C [4]: 81.8%
viability, T/C [5]: 71.5%
viability, T/C [6]: 59.9%
viability, T/C [7]: 108%
viability, T/C [8]: 80.2%
viability, T/C [9]: 91%
viability, T/C [10]: 79.1%
viability, T/C [11]: 67%
viability, T/C [12]: 58.8%
viability, T/C [13]: 89.9%
viability, T/C [14]: 51.9%
viability, T/C [15]: 80.7%
viability, T/C [16]: 44.4%
viability, T/C [17]: 50.6%
viability, T/C [18]: 74.3%
viability, T/C [19]: 82.2%
viability, T/C [20]: 44.3%
viability, T/C [21]: 88.7%
viability, T/C [22]: 53.4%
viability, T/C [23]: 47.7%
viability, T/C [24]: 57.6%
viability, T/C [25]: 55.9%
viability, T/C [26]: 61.1%
viability, T/C [27]: 55%
viability, T/C [28]: 33.6%
viability, T/C [29]: 55.7%
viability, T/C [30]: 47.1%
viability, T/C [31]: 36%
viability, T/C [32]: 52.4%
viability, T/C [33]: 43.9%
viability, T/C [34]: 39.5%
viability, T/C [35]: 41.4%
viability, T/C [36]: 31.8%
